Results published in patent US20260345596A1, “TREATMENT OF LOCALLY ADVANCED OR METASTATIC UROTHELIAL CARCINOMA WITH ERDAFINITIB” (priority 2023, published 2026).
“And” between values parts separate entries of the source, which are not always exact repeats. Equal values may be shown once. Marks after values point to notes of the source that are not given here.

Assay: Study BLC3001 (NCT03390504, THOR) Cohort 1: safety, adverse events, laboratory abnormalities and exposure
[1] = adverse events leading to death
[2] = any grade, adverse events of interest
[3] = any grade, serious adverse events, any cause
[4] = grade 3-4 adverse events of interest
[5] = leading to treatment discontinuation

## COc1cc(OC)cc(N(CCNC(C)C)c2ccc3ncc(-c4cnn(C)c4)nc3c2)c1 [Erdafitinib, N-(3,5-dimethoxyphenyl)-N′-(1-methylethyl)-N-[3-(1-methyl-1H-pyrazol-4-yl)quinoxalin-6-yl]ethane-1,2-diamine]
Grade ≥3, treatment-related
  Aspartate aminotransferase increased: 2 (1.5) no. (%)
  Asthenia: 0 no. (%)
  Constipation: 0 no. (%)
  Decreased appetite: 3 (2.2) no. (%)
  Diarrhea: 4 (3.0) no. (%)
  Dry eye: 0 no. (%)
  Dry mouth: 0 no. (%)
  Dry skin: 2 (1.5) no. (%)
  Dysgeusia: 1 (0.7) no. (%)
  Fatigue: 0 no. (%)
  Hyperphosphatemia: 7 (5.2) no. (%)
  Nausea: 1 (0.7) no. (%)
  Neutropenia: 0 no. (%)
  Onycholysis: 8 (5.9) no. (%)
  Onychomadesis: 2 (1.5) no. (%)
  Palmar-plantar erythrodysesthesia syndrome: 13 (9.6) no. (%)
  Stomatitis: 11 (8.1) no. (%)
[1]
  Atypical pneumonia: 0 no. (%)
  Cardiorespiratory arrest: 1 (0.7) no. (%)
  Febrile bone marrow aplasia: 0 no. (%)
  Febrile neutropenia: 0 no. (%)
  Pneumonia necrotizing: 1 (0.7) no. (%)
  Renal failure: 1 (0.7) no. (%)
  Septic shock: 0 no. (%)
  Sudden death: 2 (1.5) no. (%)
Any cause
  Adverse events leading to treatment discontinuation: 19 (14.1%) no. (%) and 19 (14.1) no. (%)
Any grade
  Central serous retinopathy: 23 (17.0%) n (%) and 23 (17.0) n (%)
  Eye disorders (excluding central serous retinopathy): 57 (42.2) n (%)
  Nail disorders: 90 (66.7) n (%)
  Skin disorders: 74 (54.8) n (%)
[2]
  Central serous retinopathy: 23 (17.0) no. (%)
  Chorioretinopathy: 8 (5.9) no. (%)
  Detachment of macular retinal pigment epithelium: 1 (0.7) no. (%)
  Detachment of retinal pigment epithelium: 7 (5.2) no. (%)
  Eye disorders (excluding central serous retinopathy): 57 (42.2) no. (%)
  Macular detachment: 2 (1.5) no. (%)
  Nail disorders: 90 (66.7) no. (%)
  Retinopathy: 2 (1.5) no. (%)
  Skin disorders: 74 (54.8) no. (%)
  Subretinal fluid: 5 (3.7) no. (%)
[3]
  Hematuria: 5 (3.7) no. (%)
  Hyponatremia: 3 (2.2) no. (%)
  Urinary tract infection: 6 (4.4) no. (%)
Any grade, treatment-emergent
  Neutropenia: 0 no.
Any grade, treatment-related
  Alanine aminotransferase increased: 29 (21.5) no. (%)
  Alopecia: 32 (23.7) no. (%)
  Anemia: 16 (11.9) no. (%)
  Aspartate aminotransferase increased: 25 (18.5) no. (%)
  Asthenia: 11 (8.1) no. (%)
  Constipation: 12 (8.9) no. (%)
  Decreased appetite: 28 (20.7) no. (%)
  Diarrhea: 74 (54.8) no. (%)
  Dry eye: 22 (16.3) no. (%)
  Dry mouth: 52 (38.5) no. (%)
  Dry skin: 30 (22.2) no. (%)
  Dysgeusia: 34 (25.2) no. (%)
  Fatigue: 18 (13.3) no. (%)
  Hyperphosphatemia: 106 (78.5) no. (%)
  Nausea: 14 (10.4) no. (%)
  Neutropenia: 0 no. (%)
  Onycholysis: 31 (23.0) no. (%)
  Onychomadesis: 27 (20.0) no. (%)
  Palmar-plantar erythrodysesthesia syndrome: 41 (30.4) no. (%)
  Stomatitis: 62 (45.9) no. (%)
count
  Treatment-related deaths: 1
Grade 3-4
  Central serous retinopathy: 3 (2.2) n (%)
  Eye disorders (excluding central serous retinopathy): 3 (2.2) n (%)
  Nail disorders: 15 (11.1) n (%)
  Skin disorders: 16 (11.9) n (%)
[4]
  Central serous retinopathy: 2.2%
  Nail disorders: 11.1%
  Skin disorders: 11.9%
Grade ≥3, treatment-related
  Onycholysis: 5.9%
  Palmar-plantar erythrodysesthesia syndrome: 9.6%
  Stomatitis: 8.1%
In vivo
  Treatment-emergent adverse events that led to death: 4.4%
  Treatment-related serious adverse events: 13.3%
investigator-assessed
  Treatment-related adverse events that led to death: 0.7%
[5]
  Anemia: 0 no. (%)
  Any patient with one or more adverse events leading to treatment discontinuation: 19 (14.1) no. (%)
  Atypical pneumonia: 0 no. (%)
  COVID-19: 1 (0.7) no. (%)
  Cardiorespiratory arrest: 1 (0.7) no. (%)
  Detachment of retinal pigment epithelium: 1 (0.7) no. (%)
  Diarrhea: 0 no. (%)
  Dry skin: 1 (0.7) no. (%)
  Dysphagia: 1 (0.7) no. (%)
  Dyspnea: 0 no. (%)
  Edema peripheral: 0 no. (%)
  Extremity necrosis: 1 (0.7) no. (%)
  Febrile bone marrow aplasia: 0 no. (%)
  Febrile neutropenia: 0 no. (%)
  Fractured sacrum: 0 no. (%)
  Hematuria: 1 (0.7) no. (%)
  Hyponatremia: 0 no. (%)
  Hypotension: 1 (0.7) no. (%)
  Ileus: 0 no. (%)
  Keratitis: 1 (0.7) no. (%)
  Nail dystrophy: 1 (0.7) no. (%)
  Onycholysis: 2 (1.5) no. (%)
  Paronychia: 1 (0.7) no. (%)
  Peripheral sensory neuropathy: 0 no. (%)
  Pneumonia necrotizing: 1 (0.7) no. (%)
  Pneumonitis: 0 no. (%)
  Renal failure: 1 (0.7) no. (%)
  Sciatica: 0 no. (%)
  Septic shock: 0 no. (%)
  Sudden death: 2 (1.5) no. (%)
  Syncope: 0 no. (%)
  Urinary retention: 1 (0.7) no. (%)
  Vision blurred: 1 (0.7) no. (%)
  Vomiting: 0 no. (%)
Safety population
  Adverse events leading to dose interruption: 97 (71.9) no. (%)
  Adverse events leading to dose reduction: 93 (68.9) no. (%)
  Adverse events of any cause: 98.5%
  Any adverse events (treatment-emergent): 133 (98.5%) no. (%) and 133 (98.5) no. (%)
  COVID-19-related adverse events: 12 (8.9) no. (%)
  COVID-19-related serious adverse events: 1 (0.7) no. (%)
  Grade 3-4 serious adverse events: 52 (38.5) no. (%)
  Grade 3-4 treatment-related adverse events: 45.9%
  Related adverse events (≥1 treatment-related AE, any grade): 131 (97.0) no. (%)
  Related adverse events leading to death: 1 (0.7) no. (%)
  Related adverse events leading to dose interruption: 89 (65.9) no. (%)
  Related adverse events leading to dose reduction: 89 (65.9) no. (%)
  Related adverse events leading to treatment discontinuation: 11 (8.1%)^b no. (%) and 11 (8.1) no. (%)
  Related grade 3-4 adverse events: 62 (45.9) no. (%)
  Related grade 3-4 serious adverse events: 16 (11.9) no. (%)
  Related serious adverse events: 18 (13.3) no. (%)
treatment-emergent
  Adverse events leading to death: 6 (4.4%) no. (%) and 6 (4.4) no. (%)
  Grade 3-4 adverse events: 85 (63.0%) no. (%) and 85 (63.0) no. (%)
  Serious adverse events: 56 (41.5%) no. (%) and 56 (41.5) no. (%)
treatment-emergent, any grade
  Clinically important TEAEs: 125 (92.6%) n (%)
treatment-related AEs
  Eye disorders leading to discontinuation: ^bMost frequent treatment-related AEs leading to discontinuation of erdafitinib included eye disorders (3 patients) and skin and subcutaneous disorders (3 patients).
treatment-related, any grade
  Diarrhea: 74 (54.8) n (%)
  Dry mouth: 52 (38.5) n (%)
  Hyperphosphatemia: 106 (78.5) n (%)
  Onycholysis: 31 (23.0) n (%)
  PPE syndrome: 41 (30.4) n (%)
  Stomatitis: 62 (45.9) n (%)
treatment-related, grade 3-4
  Diarrhea: 4 (3.0) n (%)
  Dry mouth: 0 n (%)
  Hyperphosphatemia: 7 (5.2) n (%)
  Onycholysis: 8 (5.9) n (%)
  PPE syndrome: 13 (9.6) n (%)
  Stomatitis: 11 (8.1) n (%)
Versus chemotherapy
  Lowering of discontinuation due to treatment-related adverse events: about 5.3%
